# Assays:
# [1] = system: bedstraw; test: Test B pre/postemergence bedstraw; assay type: in vivo, Galium aparine
# Summary of the method: (§1)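 Test chemicals in a non-phytotoxic solvent mixture with surfactant were sprayed preemergence onto planted seeds and postemergence onto plants 2 to 18 cm tall (1- to 4-leaf stage). After twelve to sixteen days in a greenhouse, injury was visually rated against untreated controls from 0 (no effect) to 10 (complete control).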
# [2] = system: blackgrass; test: Test B pre/postemergence blackgrass; assay type: in vivo, Alopecurus myosuroides
# Summary of the method: as §1
# [3] = system: giant foxtail; test: Test B pre/postemergence giant foxtail; assay type: in vivo, Setaria faberii
# Summary of the method: as §1
# [4] = system: morningglory; test: Test B pre/postemergence morningglory; assay type: in vivo, Ipomoea hederacea
# Summary of the method: as §1
# [5] = system: pigweed; test: Test B pre/postemergence pigweed; assay type: in vivo, Amaranthus retroflexus
# Summary of the method: as §1
# [6] = system: rape; test: Test B pre/postemergence rape; assay type: in vivo, Brassica napus
# Summary of the method: as §1
# [7] = system: soybean; test: Test B pre/postemergence soybean; assay type: in vivo, Glycine max
# Summary of the method: as §1
# [8] = system: sugar beet; test: Test B pre/postemergence sugar beet; assay type: in vivo, Beta vulgaris
# Summary of the method: as §1
# [9] = system: velvetleaf; test: Test B pre/postemergence velvetleaf; assay type: in vivo, Abutilon theophrasti
# Summary of the method: as §1
# [10] = system: wheat; test: Test B pre/postemergence wheat; assay type: in vivo, Triticum aestivum
# Summary of the method: as §1
# [11] = system: wild oat; test: Test B pre/postemergence wild oat; assay type: in vivo, Avena fatua
# Summary of the method: as §1
# [12] = system: purple nutsedge; test: Test B pre/postemergence purple nutsedge; assay type: in vivo, Cyperus rotundus
# Summary of the method: as §1
# [13] = system: rice; test: Test B flood test rice; assay type: in vivo, Oryza sativa
# Summary of the method: (§2)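 Each value is a visual injury score relative to controls, with 10 meaning complete control and 0 no effect. Evaluation took place twelve to sixteen days after the 2-leaf-stage plants were treated and kept in the greenhouse.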
# [14] = system: smallflower flatsedge; test: Test B flood test smallflower flatsedge; assay type: in vivo, Cyperus difformis
# Summary of the method: as §2
# [15] = system: duck salad; test: Test B flood test duck salad; assay type: in vivo, Heteranthera limosa
# Summary of the method: as §2
# [16] = system: bamyardgrass; test: Test B flood test barnyardgrass; assay type: in vivo, Echinochloa crus-galli
# Summary of the method: as §2
# [17] = Postemergence, Rate 62 g/ha, scale 0 to 10, 0 is no effect, 10 is complete control
# [18] = Preemergence, Rate 62 g/ha, scale 0 to 10 (0 no effect, 10 complete control)
# [19] = Preemergence, Rate 125 g/ha, scale 0 to 10 (0 no effect, 10 complete control)
# [20] = Preemergence, Rate 250 g/ha, scale of 0 to 10 where 0 is no effect and 10 is complete control
# [21] = Preemergence, Rate 500 g/ha, scale 0 (no effect) to 10 (complete control)
# [22] = Postemergence, Rate 125 g/ha, scale of 0 to 10 where 0 is no effect and 10 is complete control
# [23] = Postemergence, Rate 250 g/ha, scale 0 to 10, 0 no effect, 10 complete control
# [24] = Rate 500 g/ha, Postemergence, scale 0 to 10, 0 no effect, 10 complete control
# [25] = Rate 250 g/ha, Postemergence, scale 0 to 10, 0 is no effect, 10 is complete control
# [26] = Postemergence (flood test species), Rate 125 g/ha, scale of 0 to 10 where 0 is no effect and 10 is complete control
# [27] = Rate 250 g/ha, Postemergence (flood test), scale 0 to 10, 0 is no effect, 10 is complete control
# [28] = Rate 500 g/ha, listed under Postemergence (flood test species), scale 0 to 10, 0 no effect, 10 complete control
# [29] = flood test, listed under Postemergence, Rate 250 g/ha, scale 0 to 10, 0 no effect, 10 complete control
smiles,measurement,setting,value
CC(C)N(C(=O)n1oc(=O)n(-c2cccc3c2CCCC3)c1=O)c1ccc(F)cc1 [Compound 90],Bedstraw plant response rating,[1]; [17],0
same,Bedstraw plant response rating,[1]; [18],0
same,"Plant response rating, Bedstraw",[1]; [19],0
same,"Plant response rating, Bedstraw",[1]; [20],0
same,Bedstraw plant response rating,[1]; [21],0
same,Blackgrass plant response rating,[2]; [17],0
same,Blackgrass plant response rating,[2]; [22],0
same,Blackgrass plant response rating,[2]; [23],0
same,Blackgrass plant response rating,[2]; [18],0
same,"Plant response rating, Blackgrass",[2]; [19],0
same,"Plant response rating, Blackgrass",[2]; [20],3
same,Blackgrass plant response rating,[2]; [21],6
same,Blackgrass plant response rating,[2]; [24],0
same,Giant foxtail plant response rating,[3]; [17],0
same,Giant foxtail plant response rating,[3]; [22],0
same,Giant foxtail plant response rating,[3]; [23],1
same,Giant foxtail plant response rating,[3]; [18],4
same,"Plant response rating, Giant foxtail",[3]; [19],8
same,"Plant response rating, Giant foxtail",[3]; [20],9
same,Giant foxtail plant response rating,[3]; [21],10
same,Giant foxtail plant response rating,[3]; [24],1
same,Morningglory plant response rating,[4]; [17],3
same,Morningglory plant response rating,[4]; [22],3
same,Morningglory plant response rating,[4]; [23],4
same,Morningglory plant response rating,[4]; [18],0
same,"Plant response rating, Morningglory",[4]; [19],0
same,"Plant response rating, Morningglory",[4]; [20],0
same,Morningglory plant response rating,[4]; [21],0
same,Morningglory plant response rating,[4]; [24],4
same,Redroot pigweed plant response rating,[5]; [17],2
same,Redroot pigweed plant response rating,[5]; [22],5
same,Redroot pigweed plant response rating,[5]; [18],0
same,"Plant response rating, Redroot pigweed",[5]; [19],0
same,"Plant response rating, Redroot pigweed",[5]; [20],0
same,Redroot pigweed plant response rating,[5]; [21],6
same,"Plant response rating, Redroot pigweed",[5]; [25],6
same,Redroot pigweed plant response rating,[5]; [24],7
same,Rape plant response rating,[6]; [17],0
same,Rape plant response rating,[6]; [22],0
same,Rape plant response rating,[6]; [23],0
same,Rape plant response rating,[6]; [18],0
same,"Plant response rating, Rape",[6]; [19],0
same,"Plant response rating, Rape",[6]; [20],0
same,Rape plant response rating,[6]; [21],0
same,Rape plant response rating,[6]; [24],0
same,Soybean plant response rating,[7]; [17],4
same,Soybean plant response rating,[7]; [22],4
same,Soybean plant response rating,[7]; [18],0
same,"Plant response rating, Soybean",[7]; [19],0
same,"Plant response rating, Soybean",[7]; [20],0
same,Soybean plant response rating,[7]; [21],0
same,"Plant response rating, Soybean",[7]; [25],4
same,Soybean plant response rating,[7]; [24],4
same,Sugarbeets plant response rating,[8]; [17],0
same,Sugarbeets plant response rating,[8]; [22],0
same,Sugarbeets plant response rating,[8]; [18],0
same,"Plant response rating, Sugarbeets",[8]; [19],0
same,"Plant response rating, Sugarbeets",[8]; [20],0
same,Sugarbeets plant response rating,[8]; [21],0
same,"Plant response rating, Sugarbeets",[8]; [25],3
same,Sugarbeets plant response rating,[8]; [24],3
same,Velvetleaf plant response rating,[9]; [17],0
same,Velvetleaf plant response rating,[9]; [22],0
same,Velvetleaf plant response rating,[9]; [18],0
same,"Plant response rating, Velvetleaf",[9]; [19],0
same,"Plant response rating, Velvetleaf",[9]; [20],0
same,Velvetleaf plant response rating,[9]; [21],0
same,"Plant response rating, Velvetleaf",[9]; [25],0
same,Wheat plant response rating,[10]; [17],0
same,Wheat plant response rating,[10]; [22],0
same,Wheat plant response rating,[10]; [18],0
same,"Plant response rating, Wheat",[10]; [19],0
same,"Plant response rating, Wheat",[10]; [20],0
same,Wheat plant response rating,[10]; [21],0
same,"Plant response rating, Wheat",[10]; [25],0
same,Wheat plant response rating,[10]; [24],0
same,Wild oats plant response rating,[11]; [17],0
same,Wild oats plant response rating,[11]; [22],0
same,Wild oats plant response rating,[11]; [18],0
same,"Plant response rating, Wild oats",[11]; [19],0
same,"Plant response rating, Wild oats",[11]; [20],2
same,Wild oats plant response rating,[11]; [21],3
same,"Plant response rating, Wild oats",[11]; [25],0
same,Wild oats plant response rating,[11]; [24],0
same,Nutsedge plant response rating,[12]; [17],0
same,Nutsedge plant response rating,[12]; [22],0
same,Nutsedge plant response rating,[12]; [23],0
same,Nutsedge plant response rating,[12]; [18],0
same,"Plant response rating, Nutsedge",[12]; [19],0
same,"Plant response rating, Nutsedge",[12]; [20],0
same,Nutsedge plant response rating,[12]; [21],0
same,Nutsedge plant response rating,[12]; [24],0
same,Rice plant response rating,[13]; [26],0
same,Rice plant response rating,[13]; [17],0
same,"Plant response rating, Rice",[13]; [27],0
same,Rice plant response rating,[13]; [28],0
same,S. Flatsedge plant response rating,[14]; [26],0
same,S. Flatsedge plant response rating,[14]; [17],0
same,"Plant response rating, S. Flatsedge",[14]; [27],0
same,S. Flatsedge plant response rating,[14]; [28],0
same,Ducksalad plant response rating,[15]; [26],0
same,Ducksalad plant response rating,[15]; [17],0
same,Ducksalad plant response rating,[15]; [28],0
same,Ducksalad plant response rating,[15]; [29],0
same,Barnyardgrass plant response rating,[16]; [17],0
same,Barnyardgrass plant response rating,"[16]; Rate 125 g/ha, Postemergence section (flood test species), scale 0 to 10, 0 no effect, 10 complete control",0
same,Barnyardgrass plant response rating,[16]; [28],0
same,Barnyardgrass plant response rating,[16]; [29],0

# Source: patent US6737383B1, “Herbicidal oxadiazolidines” (priority 1999, dated 2004)
